The target in one assay is PI3Kα (p110α/p85α) (Homo sapiens (Human), UniProt P42336). Put plainly: PI3Kα enzymatic test by measuring the consumption of ATP. Type of assay: biochemical. The gist of the method:
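p110α/p85α (1.7 μg/ml) with 50 μM PIP2 and 2 μM ATP in pH 7.5 Tris buffer with EGTA, MgCl2, Chaps, DTT; reaction 90 min. Remaining ATP measured by luciferin/luciferase luminescence; IC50 from threefold serial dilutions spanning at least 10 000-fold.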

Another assay relates to Akt-pS473 in U87MG cells. As to conditions: Homo sapiens, U-87 MG, read-out: U87 Akt-pS473 % Inhibition or IC50, nM (IC50), U87MG cells.
The next assay relates to U87MG tumour cells. Nature of the assay: Test of in vitro proliferation of U87MG tumour cells. The assay is classed as cell-based. The following applies: Homo sapiens, U-87 MG, 72 h, U87MG cells, 72 hours; read-out: U87 Cell Proliferation IC50. The method, then:
Model 4: Test of in vitro Proliferation of U87MG Tumour Cells.
The cell growth is determined with the reagent CellTiter 96 AQueous One Solution Cell Proliferation Assay from Promega (Cat. No. G3581).

In assay [1] the target is mTOR (human recombinant aa mTOR 1360-2549) (Homo sapiens (Human), UniProt P42345). Put plainly: mTOR enzymatic test by TR-FRET (phosphorylation of GFP-4EBP1). The assay is classed as biochemical. In a few lines: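 TR-FRET detection of GFP-4EBP1 phosphorylation by a terbium-labelled anti-phospho-Thr46 antibody. Kinase reaction ran 30 min at room temperature, was quenched with EDTA (10 mM final) plus Tb-antibody (2 nM final) and left 60 min. Emission at 520 and 490 nm after 340 nm excitation, reported as the 520/490 ratio.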
In general terms: In TR-FRET formats the signal depends on donor and acceptor labels being close together.

SMILES strings stand for the structures.

Data on 13 compounds can be found in patent US9120812B2, “Pyrimidooxazocine derivatives as mTOR-inhibitors” (SANOFI, priority 2012, dated 2015).

mTOR (human recombinant aa mTOR 1360-2549), sequence (P42345 1360-2549): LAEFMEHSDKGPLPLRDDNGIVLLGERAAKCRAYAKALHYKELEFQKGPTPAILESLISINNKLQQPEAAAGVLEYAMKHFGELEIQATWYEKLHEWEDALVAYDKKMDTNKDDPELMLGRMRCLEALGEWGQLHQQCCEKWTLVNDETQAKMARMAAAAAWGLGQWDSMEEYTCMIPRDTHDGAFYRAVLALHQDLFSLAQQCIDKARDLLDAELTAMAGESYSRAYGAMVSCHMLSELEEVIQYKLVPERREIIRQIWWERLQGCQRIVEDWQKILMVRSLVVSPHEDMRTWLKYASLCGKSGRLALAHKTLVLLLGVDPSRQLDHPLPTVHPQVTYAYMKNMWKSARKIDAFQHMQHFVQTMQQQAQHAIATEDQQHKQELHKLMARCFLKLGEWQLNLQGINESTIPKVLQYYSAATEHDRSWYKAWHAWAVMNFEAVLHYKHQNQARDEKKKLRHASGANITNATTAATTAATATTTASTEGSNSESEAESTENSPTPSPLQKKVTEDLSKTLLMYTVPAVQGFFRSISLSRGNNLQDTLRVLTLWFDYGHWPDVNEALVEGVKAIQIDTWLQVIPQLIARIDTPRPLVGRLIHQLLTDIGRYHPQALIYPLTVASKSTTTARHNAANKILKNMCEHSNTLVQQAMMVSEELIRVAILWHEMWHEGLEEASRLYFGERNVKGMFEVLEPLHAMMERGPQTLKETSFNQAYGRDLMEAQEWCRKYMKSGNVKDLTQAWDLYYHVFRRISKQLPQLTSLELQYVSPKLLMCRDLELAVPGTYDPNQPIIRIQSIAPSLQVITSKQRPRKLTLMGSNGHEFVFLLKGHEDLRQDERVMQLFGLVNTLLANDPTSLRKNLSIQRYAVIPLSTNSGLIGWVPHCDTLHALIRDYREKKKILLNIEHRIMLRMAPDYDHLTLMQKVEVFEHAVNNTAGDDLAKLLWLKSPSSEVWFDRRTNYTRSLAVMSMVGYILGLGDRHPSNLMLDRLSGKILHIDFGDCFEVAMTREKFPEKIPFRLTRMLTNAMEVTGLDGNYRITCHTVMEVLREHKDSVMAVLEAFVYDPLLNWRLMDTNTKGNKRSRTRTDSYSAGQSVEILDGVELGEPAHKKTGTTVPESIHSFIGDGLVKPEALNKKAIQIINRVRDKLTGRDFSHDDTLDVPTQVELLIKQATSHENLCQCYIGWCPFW
PI3Kα (p110α/p85α), sequence (P42336 whole entry): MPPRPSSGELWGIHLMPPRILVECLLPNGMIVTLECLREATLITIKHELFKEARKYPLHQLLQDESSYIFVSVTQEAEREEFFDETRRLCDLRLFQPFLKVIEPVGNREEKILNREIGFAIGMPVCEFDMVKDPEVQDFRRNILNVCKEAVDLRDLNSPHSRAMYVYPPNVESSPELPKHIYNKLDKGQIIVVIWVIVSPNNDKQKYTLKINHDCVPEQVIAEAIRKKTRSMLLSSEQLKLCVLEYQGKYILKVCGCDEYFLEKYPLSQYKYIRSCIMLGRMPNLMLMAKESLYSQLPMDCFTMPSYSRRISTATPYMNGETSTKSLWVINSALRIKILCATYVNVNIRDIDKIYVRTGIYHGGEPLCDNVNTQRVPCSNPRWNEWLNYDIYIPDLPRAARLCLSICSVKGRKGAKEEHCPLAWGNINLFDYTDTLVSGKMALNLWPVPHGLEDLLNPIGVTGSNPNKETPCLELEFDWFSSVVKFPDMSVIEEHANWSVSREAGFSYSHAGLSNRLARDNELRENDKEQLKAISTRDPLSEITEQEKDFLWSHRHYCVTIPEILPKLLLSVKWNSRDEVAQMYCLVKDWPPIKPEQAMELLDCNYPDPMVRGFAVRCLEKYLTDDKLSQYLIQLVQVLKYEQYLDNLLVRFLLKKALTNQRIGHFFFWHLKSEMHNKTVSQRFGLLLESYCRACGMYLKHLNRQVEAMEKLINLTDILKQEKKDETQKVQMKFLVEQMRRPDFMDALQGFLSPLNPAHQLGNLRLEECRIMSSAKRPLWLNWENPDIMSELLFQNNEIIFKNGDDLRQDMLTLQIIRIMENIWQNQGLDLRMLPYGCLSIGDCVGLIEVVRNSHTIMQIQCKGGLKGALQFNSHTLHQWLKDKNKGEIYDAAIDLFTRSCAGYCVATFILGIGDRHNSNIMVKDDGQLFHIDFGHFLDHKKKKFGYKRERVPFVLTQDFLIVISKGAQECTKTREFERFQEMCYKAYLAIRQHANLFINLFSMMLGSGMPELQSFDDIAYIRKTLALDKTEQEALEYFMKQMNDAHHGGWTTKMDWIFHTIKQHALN
PI3Kα (p110α/p85α), sequence (P27986 whole entry partner): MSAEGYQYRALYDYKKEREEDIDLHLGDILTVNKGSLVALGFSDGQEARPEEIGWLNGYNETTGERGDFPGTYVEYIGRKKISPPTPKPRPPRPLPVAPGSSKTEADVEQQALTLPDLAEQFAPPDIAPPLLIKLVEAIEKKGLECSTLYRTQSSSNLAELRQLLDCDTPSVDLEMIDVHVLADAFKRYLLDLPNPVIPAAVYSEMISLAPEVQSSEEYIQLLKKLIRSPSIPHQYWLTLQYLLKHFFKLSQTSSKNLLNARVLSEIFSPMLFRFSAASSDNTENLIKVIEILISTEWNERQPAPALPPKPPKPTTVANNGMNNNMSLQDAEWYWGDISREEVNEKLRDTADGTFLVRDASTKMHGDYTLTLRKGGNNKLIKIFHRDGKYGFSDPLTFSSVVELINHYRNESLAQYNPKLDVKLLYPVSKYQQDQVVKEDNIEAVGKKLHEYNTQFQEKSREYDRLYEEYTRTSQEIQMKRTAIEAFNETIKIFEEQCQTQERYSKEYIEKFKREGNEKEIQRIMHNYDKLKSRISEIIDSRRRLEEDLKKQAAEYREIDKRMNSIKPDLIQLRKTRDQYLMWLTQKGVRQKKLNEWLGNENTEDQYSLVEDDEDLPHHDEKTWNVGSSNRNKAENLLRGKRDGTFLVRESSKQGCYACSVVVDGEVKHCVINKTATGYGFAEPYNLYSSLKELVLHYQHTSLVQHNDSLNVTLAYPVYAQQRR

As to `CCN1CC(C)(C)Oc2nc(N3C4CCC3COC4)nc(-c3ccc(NC(=O)Nc4ccc(C)nc4)c(F)c3)c2C1=O` [Example 229, 1-{4-[6-Ethyl-8,8-dimethyl-2-(3-oxa-8-azabicyclo[3.2.1]oct-8-yl)-5-oxo-5,6,7,8-tetrahydro-9-oxa-1,3,6-triazabenzocyclohepten-4-yl]-2-fluorophenyl}-3-(6-methylpyridin-3-yl)urea], the “PI3Ka IC50” value on PI3Kα (p110α/p85α) is above 10000 nM. Besides, the IC50 with Akt-pS473 in U87MG cells was 19 nM; in the assay on U87MG tumour cells it was 86 nM; in assay [1] it was 43 nM.

As for `CCN1CC(C)(C)Oc2nc(N3CCOC[C@@H]3C)nc(-c3ccc(NC(=O)Nc4ccc(OC)cn4)cc3)c2C1=O` [Example 173, 1-{4-[6-Ethyl-8,8-dimethyl-2-((S)-3-methylmorpholin-4-yl)-5-oxo-5,6,7,8-tetrahydro-9-oxa-1,3,6-triazabenzocyclohepten-4-yl]phenyl}-3-(5-methoxypyridin-2-yl)urea], the “PI3Ka IC50” value at PI3Kα (p110α/p85α) worked out at 1602 nM. Besides, the figures for the IC50 (in the assay with Akt-pS473 in U87MG cells; in the assay on U87MG tumour cells; in assay [1]) were 42 nM, 242 nM and 12 nM, respectively.

For `CCN1CC(C)(C)Oc2nc(N3CC4CCC(C3)O4)nc(-c3ccc(NC(=O)Nc4cccnc4)cc3)c2C1=O` [Example 112, 1-{4-[6-Ethyl-8,8-dimethyl-2-(8-oxa-3-azabicyclo[3.2.1]oct-3-yl)-5-oxo-5,6,7,8-tetrahydro-9-oxa-1,3,6-triazabenzocyclohepten-4-yl]phenyl}-3-pyridin-3-ylurea], the “PI3Ka IC50” value on PI3Kα (p110α/p85α) came out at 2660 nM. The IC50 with Akt-pS473 in U87MG cells came to 24 nM; in the assay on U87MG tumour cells it was 154 nM; in assay [1], 20 nM.

As for `CCN1CC(C)(C)Oc2nc(N3CCOC[C@@H]3C)nc(-c3ccc(NC(=O)Nc4cnc(N5CCOCC5)cn4)cc3)c2C1=O` [Example 232, 1-{4-[6-Ethyl-8,8-dimethyl-2-((S)-3-methylmorpholin-4-yl)-5-oxo-5,6,7,8-tetrahydro-9-oxa-1,3,6-triazabenzocyclohepten-4-yl]phenyl}-3-(5-morpholin-4-ylpyrazin-2-yl)urea], the “PI3Ka IC50” value at PI3Kα (p110α/p85α) is 5630 nM. Also, the IC50 with Akt-pS473 in U87MG cells is 26 nM; with U87MG tumour cells, 95 nM; in assay [1], 32 nM.

For `CCN1CC(C)(C)Oc2nc(N3C4CCC3COC4)nc(-c3ccc(NC(=O)NC4CC4)c(F)c3)c2C1=O` [Example 254, 1-Cyclopropyl-3-{4-[6-ethyl-8,8-dimethyl-2-(3-oxa-8-azabicyclo[3.2.1]oct-8-yl)-5-oxo-5,6,7,8-tetrahydro-9-oxa-1,3,6-triazabenzocyclohepten-4-yl]-2-fluorophenyl}urea], the “PI3Ka IC50” value on PI3Kα (p110α/p85α) is given as above 10000 nM. Further, the values for the IC50 (in the assay with Akt-pS473 in U87MG cells; in the assay with U87MG tumour cells; in assay [1]) were 68 nM, 240 nM and 68 nM, respectively.

On to `CCN1CC(C)(C)Oc2nc(N3CCOC[C@@H]3C)nc(-c3ccc(NC(=O)Nc4ccon4)c(F)c3)c2C1=O` [Example 159, 1-{4-[6-Ethyl-8,8-dimethyl-2-((S)-3-methylmorpholin-4-yl)-5-oxo-5,6,7,8-tetrahydro-9-oxa-1,3,6-triazabenzocyclohepten-4-yl]-2-fluorophenyl}-3-isoxazol-3-ylurea], for which, at PI3Kα (p110α/p85α), the “PI3Ka IC50” value is recorded as 561 nM. Also, the IC50 in the assay on Akt-pS473 in U87MG cells was determined as 21 nM; in the assay with U87MG tumour cells, 98 nM; in assay [1], 18 nM.

`CCN1CC(C)(C)Oc2nc(N3CCOC[C@@H]3C)nc(-c3ccc(NC(=O)Nc4cn(C)cn4)c(F)c3)c2C1=O` [Example 182, 1-{4-[6-Ethyl-8,8-dimethyl-2-((S)-3-methylmorpholin-4-yl)-5-oxo-5,6,7,8-tetrahydro-9-oxa-1,3,6-triazabenzocyclohepten-4-yl]-2-fluorophenyl}-3-(1-methyl-1H-imidazol-4-yl)urea]: on PI3Kα (p110α/p85α), the “PI3Ka IC50” value is on record as 159 nM. Further, the IC50 in the assay on Akt-pS473 in U87MG cells came to 407 nM; with U87MG tumour cells, 2930 nM; in assay [1], 26 nM.

Take `C[C@H]1COCCN1c1ccc(NC(=O)Nc2ccc(-c3nc(N4CC5CCC(C4)O5)nc4c3C(=O)N(C)CC(C)(C)O4)cc2F)cn1` [Example 73, 1-{2-Fluoro-4-[6,8,8-trimethyl-2-(8-oxa-3-azabicyclo[3.2.1]oct-3-yl)-5-oxo-5,6,7,8-tetrahydro-9-oxa-1,3,6-triazabenzocyclohepten-4-yl]phenyl}-3-[6-((S)-3-methylmorpholin-4-yl)pyridin-3-yl]urea]: on PI3Kα (p110α/p85α), the “PI3Ka IC50” value worked out at 5910 nM. Further, the IC50 came to 48 nM in the assay with Akt-pS473 in U87MG cells, 119 nM with U87MG tumour cells and 71 nM in assay [1].

Consider `CCN1CC(C)(C)Oc2nc(N3CCOC[C@@H]3C)nc(-c3ccc(NC(=O)Nc4ccccn4)cc3)c2C1=O` [Example 221, 1-{4-[6-Ethyl-8,8-dimethyl-2-((S)-3-methylmorpholin-4-yl)-5-oxo-5,6,7,8-tetrahydro-9-oxa-1,3,6-triazabenzocyclohepten-4-yl]phenyl}-3-pyridin-2-ylurea], for which, at PI3Kα (p110α/p85α), the “PI3Ka IC50” value stood at 372 nM. The IC50 in the assay with Akt-pS473 in U87MG cells was 11 nM; in the assay on U87MG tumour cells, 137 nM; in assay [1] it was 13 nM.

`CCN1CC(C)(C)Oc2nc(N3C4CCC3COC4)nc(-c3ccc(NC(=O)Nc4ccncn4)cc3)c2C1=O` [Example 92, 1-{4-[6-Ethyl-8,8-dimethyl-2-(3-oxa-8-azabicyclo[3.2.1]oct-8-yl)-5-oxo-5,6,7,8-tetrahydro-9-oxa-1,3,6-triazabenzocyclohepten-4-yl]phenyl}-3-pyrimidin-4-ylurea]: the “PI3Ka IC50” value at PI3Kα (p110α/p85α) is recorded as above 10000 nM. The results for the IC50 (in the assay with Akt-pS473 in U87MG cells; in the assay on U87MG tumour cells; in assay [1]) were 12 nM, 99 nM and 40 nM, respectively.

In the case of `CCNC(=O)Nc1ccc(-c2nc(N3CC4CCC(C3)O4)nc3c2C(=O)N(CC)CC(C)(C)O3)cc1` [Example 99, 1-Ethyl-3-{4-[6-ethyl-8,8-dimethyl-2-(8-oxa-3-azabicyclo[3.2.1]oct-3-yl)-5-oxo-5,6,7,8-tetrahydro-9-oxa-1,3,6-triazabenzocyclohepten-4-yl]phenyl}urea], the “PI3Ka IC50” value on PI3Kα (p110α/p85α) was above 10000 nM. For the same compound, the IC50 turned out to be 40 nM in the assay on Akt-pS473 in U87MG cells, 239 nM with U87MG tumour cells and 31 nM in assay [1].

`CC1(C)CN(C2CCOCC2)C(=O)c2c(nc(N3CC4CCC(C3)O4)nc2-c2ccc(NC(=O)Nc3ccon3)cc2)O1` [Example 157, 1-{4-[8,8-Dimethyl-2-(8-oxa-3-azabicyclo[3.2.1]oct-3-yl)-5-oxo-6-(tetrahydropyran-4-yl)-5,6,7,8-tetrahydro-9-oxa-1,3,6-triazabenzocyclohepten-4-yl]phenyl}-3-isoxazol-3-ylurea]: on PI3Kα (p110α/p85α), the “PI3Ka IC50” value is above 10000 nM. The results for the IC50 (with Akt-pS473 in U87MG cells; in the assay with U87MG tumour cells; in assay [1]) were 67 nM, 260 nM and 27 nM, respectively.

With `CCN1CC(C)(C)Oc2nc(N3CC4CCC(C3)O4)nc(-c3ccc(NC(=O)Nc4cccc(OC)c4)cc3)c2C1=O` [Example 127, 1-{4-[6-Ethyl-8,8-dimethyl-2-(8-oxa-3-azabicyclo[3.2.1]oct-3-yl)-5-oxo-5,6,7,8-tetrahydro-9-oxa-1,3,6-triazabenzocyclohepten-4-yl]phenyl}-3-(3-methoxyphenyl)urea], the “PI3Ka IC50” value at PI3Kα (p110α/p85α) came out at 3646 nM. For the same compound, the IC50 with Akt-pS473 in U87MG cells was determined as 24 nM; in the assay with U87MG tumour cells, 79 nM; in assay [1], 16 nM.
